We go through ten compounds from ChEMBL document CHEMBL1201862, “PubChem BioAssay data set” (2004).

Among the test systems are A498; PC-3; RXF 393; SK-OV-3; HOP-62; K562; CAKI-1; OVCAR-5; SN12C; NCI-H226; HCC 2998; OVCAR-8; MCF7; SK-MEL-2; OVCAR-3; SF-539; SF-268; SR; SF-295; MDA-N.
Experiment in all cases: NCI tumour cell line growth inhibition, 48 h

The structures appear in SMILES notation.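 How tested: cells in 96-well plates exposed to compound for 48 hours at five concentrations. The concentration for 50% growth inhibition is given as GI50.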 Activity calls are given as the source filed them. Cut-off read from the data, not from the text of the source: active = GI50 up to about 1.1 µM and inactive = higher. Some results are limits rather than exact numbers.

For `CCOC(=O)c1cc(-c2ccc(OC)c(OC)c2)cn1C`, the GI50 in the experiment with A498, in the experiment on PC-3, in the experiment with RXF 393, with SK-OV-3, in the experiment on HOP-62 and in the experiment with K562 was > 10 µM (inactive) in each case. Besides, the GI50 in the experiment on CAKI-1, with OVCAR-5, in the experiment with SN12C, in the experiment on NCI-H226, with HCC 2998 and in the experiment with OVCAR-8 was > 10 µM (inactive) throughout. In addition, the GI50 with MCF7, in the experiment on SK-MEL-2, in the experiment with OVCAR-3, in the experiment on SF-539, with SF-268 and with SR was > 10 µM (inactive) in each case. Further, the GI50 in the experiment on SF-295 and in the experiment on MDA-N was > 10 µM (inactive) each time.

`O=C(CC(O)c1cccnc1)CC(O)c1cccnc1` (stereo not given): the GI50 in the experiment on A498 was 15.9 µM (inactive); with PC-3, 15.8 µM (inactive); in the experiment on RXF 393, 16.7 µM (inactive); in the experiment on SK-OV-3, 17.5 µM (inactive); in the experiment with HOP-62, 21.9 µM (inactive); in the experiment on K562, 2.75 µM (inactive). Besides, the GI50 is 17.7 µM (inactive) in the experiment on CAKI-1; 24.2 µM (inactive) with OVCAR-5; 18.6 µM (inactive) in the experiment on SN12C; 45.7 µM (inactive) in the experiment with NCI-H226; 3.82 µM (inactive) with HCC 2998; 15.3 µM (inactive) in the experiment on OVCAR-8. In addition, the GI50 in the experiment with MCF7 is 4.34 µM (inactive); in the experiment with SK-MEL-2, 18.9 µM (inactive); in the experiment on OVCAR-3, 14.7 µM (inactive); with SF-539, 21.2 µM (inactive); in the experiment with SF-268, 25.5 µM (inactive); with SR it was 2.78 µM (inactive). Besides, the GI50 in the experiment on SF-295 was 15.4 µM (inactive); in the experiment with MDA-N, 7.26 µM (inactive).

Consider `COc1cc(/C=C2\C[C@H]3[C@@H]4CCc5cc(O)ccc5[C@H]4CC[C@]3(C)C2=O)cc(OC)c1OC`, for which the GI50 in the experiment on A498 is 32.4 µM (inactive); in the experiment with PC-3, 10.1 µM (inactive); in the experiment with RXF 393 it was 9.57 µM (inactive); in the experiment with SK-OV-3 it was 21.2 µM (inactive); in the experiment with HOP-62, 12.4 µM (inactive); in the experiment on K562, 12.3 µM (inactive). In addition, the GI50 is 11.4 µM (inactive) with CAKI-1; 17.7 µM (inactive) in the experiment on OVCAR-5; 15.1 µM (inactive) in the experiment with SN12C; 6.05 µM (inactive) in the experiment with NCI-H226; 12.9 µM (inactive) in the experiment with HCC 2998; 15.5 µM (inactive) with OVCAR-8. Also, the GI50 in the experiment on MCF7 is 52.6 µM (inactive); with SK-MEL-2, 14 µM (inactive); in the experiment on OVCAR-3, 11.4 µM (inactive); in the experiment with SF-539, 25.8 µM (inactive); in the experiment on SF-268 it was 8.73 µM (inactive); with SR, 3.21 µM (inactive). For the same compound, the GI50 in the experiment on SF-295 was 12.6 µM (inactive); with MDA-N, 15.6 µM (inactive).

`N#Cc1c2c(c(Nc3ccc(F)cc3)n3c1nc1ccccc13)CCCC2`: the GI50 in the experiment on A498 was > 100 µM (inactive); in the experiment with PC-3, 5.36 µM (inactive); in the experiment with RXF 393 it was 24 µM (inactive); with SK-OV-3, 97.9 µM (inactive); in the experiment with HOP-62 it was 29.1 µM (inactive); in the experiment with K562, 0.562 µM (active). Moreover, the GI50 in the experiment on CAKI-1 is > 52.2 µM (inactive); in the experiment on OVCAR-5 it was > 100 µM (inactive); in the experiment on SN12C, > 100 µM (inactive); in the experiment with NCI-H226, > 80 µM (inactive); in the experiment on HCC 2998, > 100 µM (inactive); with OVCAR-8, > 67.3 µM (inactive). The GI50 in the experiment on MCF7 was > 32.5 µM (inactive); in the experiment with SK-MEL-2, > 100 µM (inactive); in the experiment with OVCAR-3 it was > 100 µM (inactive); with SF-539 it was > 55.5 µM (inactive); with SF-268, > 100 µM (inactive); in the experiment on SR, 74.3 µM (inactive). For the same compound, the results for the GI50 in the experiment on SF-295 and with MDA-N were 8.15 µM (inactive) and > 28.6 µM (inactive), respectively.

For `CC(C)/C(Cl)=N\OC(=O)Nc1ccc(C#N)cc1`, the GI50 is 14.5 µM (inactive) with A498; 16.5 µM (inactive) in the experiment on PC-3; 1.85 µM (inactive) with RXF 393; 17.3 µM (inactive) in the experiment on SK-OV-3; 17.5 µM (inactive) in the experiment on HOP-62; 2 µM (inactive) in the experiment on K562. Besides, the GI50 with CAKI-1 is 5.58 µM (inactive); in the experiment on OVCAR-5, 15.1 µM (inactive); in the experiment with SN12C, 13.7 µM (inactive); in the experiment with NCI-H226, 13.1 µM (inactive); with HCC 2998 it was 16.4 µM (inactive); in the experiment with OVCAR-8, 16.7 µM (inactive). Further, the GI50 in the experiment on MCF7 was 9.04 µM (inactive); in the experiment on SK-MEL-2, 11.8 µM (inactive); with OVCAR-3, 16.8 µM (inactive); in the experiment on SF-539, 15.9 µM (inactive); in the experiment with SF-268 it was 19.2 µM (inactive); in the experiment on SR, 2.17 µM (inactive). For the same compound, the GI50 in the experiment with SF-295 was 19 µM (inactive); with MDA-N, 6.01 µM (inactive).

For the compound `CN1CCC2(CC1)SC[C@H]1C(=O)N(c3ccc(Cl)cc3)C(=O)N12`, the GI50 was 24.2 µM (inactive) with A498; > 100 µM (inactive) in the experiment on PC-3; > 100 µM (inactive) in the experiment on RXF 393; > 100 µM (inactive) in the experiment on SK-OV-3; > 100 µM (inactive) in the experiment on HOP-62; 45.2 µM (inactive) in the experiment with K562. Moreover, the GI50 in the experiment on CAKI-1, in the experiment on OVCAR-5, in the experiment on SN12C, with NCI-H226, in the experiment with HCC 2998 and with OVCAR-8 was > 100 µM (inactive) in each case. The GI50 in the experiment on MCF7, with SK-MEL-2, with OVCAR-3, with SF-539, in the experiment with SF-268 and with SR was > 100 µM (inactive) in each case. The GI50 in the experiment on SF-295 and in the experiment on MDA-N was > 100 µM (inactive) throughout.

Regarding `NS(=O)(=O)c1ccc(NNc2c3ccccc3nc3c(C(=O)Nc4ccc(S(N)(=O)=O)cc4)cccc23)cc1`, the GI50 is > 100 µM (inactive) in the experiment on A498; 30.2 µM (inactive) in the experiment on PC-3; 6.73 µM (inactive) in the experiment on RXF 393; 50 µM (inactive) in the experiment on SK-OV-3; 57.3 µM (inactive) in the experiment with HOP-62; 21.2 µM (inactive) in the experiment with K562. Besides, the GI50 is > 100 µM (inactive) in the experiment with CAKI-1; 62.7 µM (inactive) in the experiment with OVCAR-5; 31.5 µM (inactive) in the experiment with SN12C; 37.6 µM (inactive) with NCI-H226; 17.4 µM (inactive) in the experiment with HCC 2998; 26.5 µM (inactive) in the experiment with OVCAR-8. In addition, the GI50 in the experiment with MCF7 is 12.9 µM (inactive); with SK-MEL-2, 13 µM (inactive); in the experiment with OVCAR-3 it was 23 µM (inactive); in the experiment on SF-539, 25.7 µM (inactive); in the experiment on SF-268, 16.2 µM (inactive); with SR, 9.42 µM (inactive). For the same compound, the GI50 is 37.7 µM (inactive) in the experiment on SF-295 and 65 µM (inactive) in the experiment on MDA-N.

For `CN(CCCN=C=S)CCCN1c2ccccc2CCc2ccccc21`, the GI50 in the experiment on A498 was 1.66 µM (inactive); with PC-3 it was 1.69 µM (inactive); in the experiment with RXF 393, 1.92 µM (inactive); in the experiment with SK-OV-3, 1.63 µM (inactive); with HOP-62 it was 1.83 µM (inactive); in the experiment on K562, 0.45 µM (active). In addition, the GI50 is 1.73 µM (inactive) in the experiment on CAKI-1; 1.81 µM (inactive) in the experiment on OVCAR-5; 1.69 µM (inactive) in the experiment on SN12C; 2.04 µM (inactive) in the experiment with NCI-H226; 1.31 µM (inactive) with HCC 2998; 1.78 µM (inactive) with OVCAR-8. For the same compound, the GI50 with MCF7 is 1.59 µM (inactive); in the experiment with SK-MEL-2, 1.86 µM (inactive); with OVCAR-3, 1.66 µM (inactive); in the experiment with SF-539, 1.76 µM (inactive); in the experiment with SF-268 it was 1.71 µM (inactive); in the experiment with SR, 0.456 µM (active). In addition, the GI50 with SF-295 and in the experiment on MDA-N was 1.71 µM (inactive) each time.

In the case of `COC1(OC)C2(Cl)C(Cl)=C(Cl)C1(Cl)C1COCC12` (stereo not given), the GI50 in the experiment on A498 is > 100 µM (inactive); in the experiment on PC-3, > 100 µM (inactive); in the experiment on RXF 393, > 100 µM (inactive); in the experiment on SK-OV-3, > 100 µM (inactive); with HOP-62 it was > 100 µM (inactive); in the experiment with K562 it was > 88.5 µM (inactive). Also, the GI50 in the experiment on CAKI-1, in the experiment with OVCAR-5, with SN12C, with NCI-H226, with HCC 2998 and with OVCAR-8 was > 100 µM (inactive) in each case. Further, the GI50 with MCF7 is > 100 µM (inactive); in the experiment on SK-MEL-2, > 100 µM (inactive); with OVCAR-3, > 100 µM (inactive); in the experiment with SF-539, > 100 µM (inactive); in the experiment on SF-268, > 100 µM (inactive); in the experiment with SR, > 75.3 µM (inactive). For the same compound, the results for the GI50 in the experiment on SF-295 and with MDA-N were > 100 µM (inactive) and > 20.4 µM (inactive), respectively.

Turning to `Cc1ccc(-c2cc(=O)c(=O)[nH][nH]2)cc1`, the GI50 with A498, in the experiment on PC-3, in the experiment with RXF 393, with SK-OV-3, in the experiment with HOP-62 and in the experiment with K562 was > 100 µM (inactive) throughout. For the same compound, the GI50 with CAKI-1, in the experiment on OVCAR-5, in the experiment on SN12C, in the experiment with NCI-H226, in the experiment on HCC 2998 and in the experiment with OVCAR-8 was > 100 µM (inactive) each time. Further, the GI50 with MCF7, in the experiment on SK-MEL-2, with OVCAR-3, in the experiment with SF-539, in the experiment with SF-268 and in the experiment with SR was > 100 µM (inactive) throughout. Moreover, the GI50 in the experiment on SF-295 and with MDA-N was > 100 µM (inactive) throughout.
